# Patent US6042848A, “Enhancement of antimicrobial peptide activity by metal ions” (The Board of Trustees of Southern Illinois University, priority 1997, dated 2000)
# Assays:
# [1] = test system: E. coli; assay: Bactericidal assay, E. coli colony count after 30 min incubation with peptide and CuSO4; type: cell-based
# Description: Bovine TAP was synthesized and purified to a single HPLC peak. Bactericidal assay was carried out by growing wild-type E. coli in tryptic soy broth (TSB) until the OD600 reached 0.2. Cells were then diluted in 50 μl 10 mM NaPO4 buffer, pH 7.4, to 4×10^5 cells/ml. […] Five Al samples were plated on L-agar, and the plates were incubated at 37° C. overnight. Colonies were then counted.
# [2] = test system: Pseudomonas aeruginosa; assay: Bactericidal assay, Pseudomonas strain from a cystic fibrosis patient, with TAP, NaCl and CuSO4; type: cell-based
# Description: Bovine TAP of 38 amino acids was chemically synthesized by the method of Duclohier ((1989) Biophys. J. 5:1017-1021), and purified to a single peak by HPLC. Bactericidal assay was carried out by growing a wild-type Pseudomonas strain obtained from a cystic fibrosis patient in TSB until the OD600 reached 0.2. Cells were then diluted in 50 μl 10 mM NaPO4 buffer, pH 7.4, to 4×10^5 cells/ml. […] TAP, varying concentrations of NaCl, and 0.1 mM CuS04 were added, and the mixtures were incubated for 30 minutes at 37° C. Five μl samples were taken and plated on L-agar, and the plates were incubated at 37° C. overnight. Colonies were then counted.
# [3] = NaCl 0 mM, TAP 0 μg/ml, CU 0 mM as printed (second such line)
# [4] = NaCl 15 mM, TAP 0 μg/ml, CU 0.1 mM
# [5] = NaCl 25 mM, TAP 0 μg/ml, CU 0.1 mM
# [6] = NaCl 50 mM, TAP 0 μg/ml, CU 0.1 mM
# [7] = NaCl 75 mM, TAP 0 μg/ml, CU 0.1 mM
# [8] = peptide 10 ug/ml, CuSO4 0 mM, 30 min 37 C
# [9] = peptide 10 ug/ml, CuSO4 0.01 mM, 30 min 37 C
# [10] = peptide 10 ug/ml, CuSO4 0.1 mM, 30 min 37 C
# [11] = NaCl 15 mM, TAP 10 μg/ml, CU 0.1 mM
# [12] = NaCl 25 mM, TAP 10 μg/ml, CU 0.1 mM
# [13] = NaCl 50 mM, TAP 10 μg/ml, CU 0.1 mM
# [14] = NaCl 75 mM, TAP 10 μg/ml, CU 0.1 mM
molecule,measurement,setting,value
"O=S(=O)([O-])[O-].[Cu+2] [CuSO4, copper sulfate (cupric sulfate)]",% SURVIVAL,"[1]; No Peptide, CuSO4 0.01 mM",62%
same,% SURVIVAL,"[1]; No Peptide, CuSO4 0.1 mM",22%
same,% SURVIVAL,"[1]; No Peptide, CuSO4 1 mM",16%
same,% SURVIVAL,"[1]; No Peptide, CuSO4 10 mM",7%
same,# COLONIES,"[1]; No Peptides, CuSO4 0.01 mM",1776
same,# COLONIES,"[1]; No Peptides, CuSO4 0.1 mM",640
same,# COLONIES,"[1]; No Peptides, CuSO4 1 mM",443
same,# COLONIES,"[1]; No Peptides, CuSO4 10 mM",211
same,# COLONIES,[2]; [3],534
same,% SURVIVAL,[2]; [3],35%
same,# COLONIES,[2]; [4],580
same,% SURVIVAL,[2]; [4],39%
same,# COLONIES,[2]; [5],513
same,% SURVIVAL,[2]; [5],34%
same,# COLONIES,[2]; [6],696
same,% SURVIVAL,[2]; [6],46%
same,# COLONIES,[2]; [7],796
same,% SURVIVAL,[2]; [7],53%
"Tracheal Antimicrobial Peptide (NPVSCVRNKGICVPIRCPGSMKQIGTCVGRAVKCCRKK; UniProt P25068 27-64, looked up) [TAP, airway beta-defensin; bovine TAP of 38 amino acids, chemically synthesized and purified to a single HPLC peak]",% SURVIVAL,"[1]; TAP 1 ug/ml, CuSO4 0 mM",40%
same,% SURVIVAL,"[1]; TAP 1 ug/ml, CuSO4 0.01 mM",8%
same,% SURVIVAL,"[1]; TAP 1 ug/ml, CuSO4 0.1 mM",2%
same,# COLONIES,"[1]; peptide 10 ug/ml, Cu 0 mM",119
same,# COLONIES,"[1]; peptide 10 ug/ml, Cu 0.01 mM",106
same,# COLONIES,"[1]; peptide 10 ug/ml, Cu 0.1 mM",32
same,% SURVIVAL,[1]; [8],9%
same,% SURVIVAL,[1]; [9],8%
same,% SURVIVAL,[1]; [10],2%
same,# COLONIES,[2]; [11],233
same,% SURVIVAL,[2]; [11],15%
same,# COLONIES,[2]; [12],89
same,% SURVIVAL,[2]; [12],6%
same,# COLONIES,[2]; [13],242
same,% SURVIVAL,[2]; [13],16%
same,# COLONIES,[2]; [14],363
same,% SURVIVAL,[2]; [14],24%
same,killing of Pseudomonas by the combination of copper ions and TAP versus TAP alone,"[2]; copper 0.1 mM, increasing NaCl concentrations",more effective than TAP alone
magainin,effect of CuSO4 on the antimicrobial activity of the peptide,[1]; 0.01 to 0.1 mM CuS04,enhanced the antimicrobial activity
same,# COLONIES,"[1]; peptide 10 ug/ml, Cu 0 mM",1895
same,# COLONIES,"[1]; peptide 10 ug/ml, Cu 0.01 mM",1654
same,# COLONIES,"[1]; peptide 10 ug/ml, Cu 0.1 mM",975
same,% SURVIVAL,[1]; [8],80%
same,% SURVIVAL,[1]; [9],70%
same,% SURVIVAL,[1]; [10],41%
